From patent publication US8389523B2, “Substituted quinoxaline and an agrochemical composition thereof” (Kumiai Chemical Industry Co., Ltd., priority 2007, dated 2013)

Tests used:
Type in all cases: in vivo
Design in all cases: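 grade 0 to 5 of growth suppression where 5 is 90% or more and 0 below 10%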
[1] = tested on: Abutilon theophrasti medicus; test: Herbicidal effects in upland field soil treatment (Test Example 2); details: 1000 g active ingredient per hectare, 21st day after treatment, criteria of Table 138
Description: (§1) Test Example 2 Test on Herbicidal Effects in Upland Field Soil Treatment A 80-cm^2 plastic pot was filled with upland field soil. Seeds of Abutilon theophrasti medicus and Amaranthus viridis L. were sowed, and soil was covered. A wettable powder formulation prepared according to Preparation Example 1 was diluted with water, and was uniformly sprayed on the soil surface with a small sprayer, in an amount equivalent to 1000 liters per hectare, such that 1000 g of the active ingredient per hectare was applied. Thereafter, the plants were grown in a greenhouse, and on the 21st day after the treatment, the herbicidal effects were investigated according to the criteria described in the Table 138 shown above.

[2] = tested on: Amaranthus viridis L.; test: as above; details: 1000 g active ingredient per hectare, 21st day after treatment, criteria of Table 138
Description: as §1

[3] = tested on: Echinochloa oryzicola Vasing; test: Herbicidal effects in paddy field soil treatment (Test Example 1); details: paddy field soil treatment; 1000 g of the active ingredient per hectare; wettable powder added dropwise on water surface; 21st day after treatment
Description: (§2) Test for Herbicidal Effects in Paddy Field Soil Treatment
(§3) A 100-cm^2 plastic pot was filled with paddy field soil. After puddling and leveling, seeds of Echinochloa oryzicola Vasing, Monochoria vaginalis (Burm. f.) Presl var. plantaginea (Roxb.) Solms-Laub., and Scirpus juncoides Roxb. var. ohwianus. T. Koyama were sowed, and the soil was waterlogged to a water depth of 3 cm. On the next day, a wettable powder formulation prepared according to Preparation Example 1 was diluted with water, and was added dropwise on the water surface. The amount of application was an amount equivalent to 1000 g of the active ingredient per hectare. Thereafter, the plants were grown in a greenhouse, and on the 21st day after the treatment, the herbicidal effects were investigated according to the criteria described in Table 138.

[4] = tested on: Monochoria vaginalis (Burm. f.) Presl var. plantaginea (Roxb.) Solms-Laub.; test: as above; details: paddy field soil treatment; 1000 g of the active ingredient per hectare; wettable powder added dropwise on water surface; 21st day after treatment
Description: as §2, §3

[5] = tested on: Scirpus juncoides Roxb. var. ohwianus. T. Koyama; test: as above; details: paddy field soil treatment; 1000 g of the active ingredient per hectare; wettable powder added dropwise on water surface; 21st day after treatment
Description: as §2, §3

Row | SMILES | herbicidal effect (index) on Abutilon theophrasti medicus [1] | herbicidal effect (index) on Amaranthus viridis L. [2] | Herbicidal effects index, Echinochloa oryzicola Vasing [3] | Herbicidal effects index, Monochoria vaginalis (Burm. f.) Presl var. plantaginea (Roxb.) Solms-Laub. [4] | Herbicidal effects index, Scirpus juncoides Roxb. var. ohwianus. T. Koyama [5]
1 | CC(C)(C)n1c(=O)c(C(=O)C2=C(O)CCCC2=O)nc2ccccc21 [I-18] | 5 | 5 | – | – | –
2 | O=C1CCCC(O)=C1C(=O)c1nc2ccccc2n(COc2ccccc2)c1=O [I-57] | 4 | 5 | 4 | 5 | 5
3 | CS(=O)(=O)Cn1c(=O)c(C(=O)C2=C(O)CCCC2=O)nc2ccccc21 [I-80] | 5 | 5 | – | – | –
4 | Cn1nc(C(F)(F)F)nc1-n1c(=O)c(C(=O)C2=C(O)CCCC2=O)nc2ccccc21 [I-165] | 5 | 5 | 5 | 5 | 5
5 | Cc1ccc(-n2c(=O)c(C(=O)C3=C(O)CCCC3=O)nc3ccccc32)nc1 [I-178] | 5 | 5 | 4 | 5 | 5
6 | O=C1CCCC(O)=C1C(=O)c1nc2ccccc2n(-c2ccc3c(c2)OCCO3)c1=O [I-209, 1-(2,3-dihydrobenzo[b]1,4-dioxin-6-yl)-3-(2-hydroxy-6-oxo-1-cyclohexenecarbonyl)-quinoxalin-2(1H)-one] | 4 | 5 | 4 | 5 | 5
7 | Cn1c(=O)c(C(=O)C2=C(O)CCCC2=O)nc2c(Cl)cccc21 [I-223] | 5 | 5 | 4 | 5 | 5
8 | COc1ccc2nc(C(=O)C3=C(O)CCCC3=O)c(=O)n(C)c2c1 [I-238] | 5 | 4 | 5 | 4 | 5
9 | Cn1c(=S)c(C(=O)C2=C(O)CCCC2=O)nc2ccccc21 [I-256, 3-hydroxy-2-(1-methyl-2-thioxo-1,2-dihydroquinoxalin-3-yl-carbonyl)-2-cyclohexen-1-one] | 5 | 5 | – | – | –
10 | O=C1CCCC(O)=C1C(=O)c1nc2ccccc2n(-c2ccc3ccccc3c2)c1=O [I-264] | 4 | 5 | 4 | 5 | 5
11 | CC(C)(C)c1cc(-n2c(=O)c(C(=O)C3=C(O)CCCC3=O)nc3ccccc32)no1 [I-265] | 4 | 5 | 4 | 5 | 5
12 | O=C1CCCC(O)=C1C(=O)c1nc2ccccc2n(-c2ccc(Cl)nn2)c1=O [I-273] | 5 | 5 | 5 | 5 | 5
13 | CN(C(=O)OC(C)(C)C)n1c(=O)c(C(=O)C2=C(O)CCCC2=O)nc2ccccc21 [I-278] | 5 | 5 | 4 | 5 | 5
14 | COc1ccc(-n2c(=O)c(C(=O)C3=C(O)CCCC3=O)nc3c(F)cccc32)cn1 [I-279] | 5 | 5 | 4 | 5 | 5
15 | CCn1c(=O)c(C(=O)C2=C(O)CCCC2=O)nc2c(Cl)cccc21 [I-363] | 5 | 5 | 5 | 5 | 5
16 | Cc1ccc(-n2c(=O)c(C(=O)C3=C(O)CCCC3=O)nc3ccc(C)cc32)nc1 [I-368] | 5 | 5 | 4 | 5 | 5
17 | COc1ccc(-n2c(=O)c(C(=O)C3=C(O)CCCC3=O)nc3c(Cl)cccc32)cn1 [I-379] | 5 | 5 | 5 | 5 | 5
18 | CC(C)c1cccc(-n2c(=O)c(C(=O)C3=C(O)CCCC3=O)nc3ccccc32)c1 [II-29] | 4 | 5 | 5 | 5 | 5
19 | C=CCOc1ccc(-n2c(=O)c(C(=O)C3=C(O)CCCC3=O)nc3ccccc32)cc1 [II-81] | 5 | 5 | 5 | 5 | 5
20 | COC(=O)c1ccc(-n2c(=O)c(C(=O)C3=C(O)CCCC3=O)nc3ccccc32)cc1 [II-146] | 4 | 5 | – | – | –
21 | O=C1CCCC(O)=C1C(=O)c1nc2ccccc2n(-c2ccc(OCC(F)(F)F)cc2)c1=O [II-209] | – | – | 5 | 5 | 5
22 | COc1ccc(-n2c(=O)c(C(=O)C3=C(O)CCCC3=O)nc3cc(C)ccc32)cc1 [II-246] | – | – | 4 | 5 | 5
23 | COc1c(F)cc(-n2c(=O)c(C(=O)C3=C(O)CCCC3=O)nc3ccc(C)cc32)cc1F [II-248] | – | – | 5 | 5 | 5
24 | COc1ccc2c(c1)nc(C(=O)C1=C(O)CCCC1=O)c(=O)n2-c1ccccc1 [II-250] | 5 | 5 | – | – | –
25 | COc1ccc(-n2c(=O)c(C(=O)C3=C(O)CCCC3=O)nc3ccc(OC)cc32)cc1 [II-253] | – | – | 5 | 5 | 5
26 | COc1ccc(-n2c(=O)c(C(=O)C3=C(O)CCCC3=O)nc3c(F)c(F)ccc32)cc1 [II-258] | – | – | 4 | 5 | 5
27 | COc1ccc(-n2c(=O)c(C(=O)C3=C(O)CCCC3=O)nc3c(Cl)cc(Cl)cc32)cc1 [II-262] | 4 | 5 | – | – | –
28 | COc1ccc(-n2c(=O)c(C(=O)C3=C(O)CCCC3=O)nc3c(F)c(F)c(OC)c(F)c32)cc1 [II-302] | 4 | 5 | – | – | –
29 | CC(C(=O)OC(C)(C)C)n1c(=O)c(C(=O)C2=C(O)CCCC2=O)nc2cccnc21 (stereo not drawn) [III-233] | 5 | 5 | – | – | –
